Several values for one entry are separate records, joined by “and”; a condition that tells them apart may be missing. Identical values can stand only once.
Columns and labels:
[1] = cited from earlier work
[2] = cited from earlier work; remark: listed apart in the source
[3] = Distribution of calcitonin in sub-compartments of sheep blood in vitro; assay type: in vitro ADME; conditions: calcitonin treated group, 2.5 ng/ml; sum of all five compartments = 100 percent
[4] = cited from earlier work; remark: listed apart in the source

| distribution of calcitonin associated with RBC [3] | distribution of calcitonin in plasma [3] [%] | distribution of calcitonin on WBC-surface [3] | Substance | elimination half-life [1] [min] | sustained pharmacodynamic effects (duration) [2] [h] | half-life [1] [min] | bioavailability ([1]; parenteral delivery, various formulations) | plasma protein binding [4] [%] |
| --- | --- | --- | --- | --- | --- | --- | --- | --- |
| – | – | – | salmon Calcitonin | 54 to 76 | – | – | – | – |
| less than 8% | ~30 | ~30% and ~40% | Calcitonin | – | 18 to 22 | 40 to 60 | up to 70% | ~40 |

— article doi:10.1101/2022.02.10.479976v1 (bioRxiv, 2022)
